According to patent US8133506B2, “Drug delivery systems comprising weakly basic drugs and organic acids” (Aptalis Pharmatech, Inc., priority 2008, dated 2012):
Values after ≈ are worked out from the molar mass of the structure shown. Structures can show the parent of a compound that is named as a salt. Where two headings read alike, the source gives them in different places.

What was measured:
[1] = pH-dependent solubility in aqueous buffer
[2] = Solubility in organic acid buffers (fumaric, aspartic, glutamic acid)
[3] = physchem
[4] = cited from earlier work
[5] = cited from earlier work; remark: listed apart in the source
[6] = physchem; remark: listed apart in the source
[7] = pH 6.8, aqueous buffer, solubility

Structure (SMILES): O=C1CN=C(c2ccccc2Cl)c2cc([N+](=O)[O-])ccc2N1 [Clonazepam]
- solubility ([1]; pH 2.2, aqueous buffer): 11.4 µg/mL (≈ 36.1 µM)
- solubility ([1]; pH 2.8, aqueous buffer): 10.2 µg/mL (≈ 32.3 µM)
- solubility ([1]; pH 3.2, aqueous buffer): 9.6 µg/mL (≈ 30.4 µM)
- solubility ([1]; pH 3.8, aqueous buffer): 9.2 µg/mL (≈ 29.1 µM)
- solubility ([1]; pH 4.2, aqueous buffer): 9.1 µg/mL (≈ 28.8 µM)
- solubility ([1]; pH 4.8, aqueous buffer): 8.6 µg/mL (≈ 27.2 µM)
- solubility ([1]; pH 5.4, aqueous buffer): 8.4 µg/mL (≈ 26.6 µM)
- solubility ([1]; pH 6.2, aqueous buffer): 8 µg/mL (≈ 25.3 µM)
- solubility ([1]; physiological pHs): practically insoluble
- solubility ([2]; buffer at pH 2.3, higher concentration of fumaric acid): about 11.6 μg/mL
- solubility ([2]; buffer at pH 6.8, lower concentration of fumaric acid): ~6.9 µg/mL (≈ 21.9 µM)
- solubility ([2]; pH 2.3, aqueous buffer): 11.6 µg/mL (≈ 36.7 µM)
- solubility ([2]; pH 2.8, aqueous buffer): 10.3 µg/mL (≈ 32.6 µM)
- solubility ([2]; pH 3.2, aqueous buffer): 9.6 µg/mL (≈ 30.4 µM)
- solubility ([2]; pH 3.7, aqueous buffer): 9.8 µg/mL (≈ 31 µM)
- solubility ([2]; pH 5.5, aqueous buffer): 290 µg/mL (≈ 919 µM)

Structure (SMILES): COc1cc(C(C)=O)ccc1OCCCN1CCC(c2noc3cc(F)ccc23)CC1 [Iloperidone]
- solubility ([3]; pH 1.2, simulated gastric fluid, Solubility of Iloperidone in Aqueous Buffer): 3900 µg/mL (≈ 9140 µM)
- solubility ([3]; pH 3.01, aqueous buffer, Solubility of Iloperidone in Aqueous Buffer): 1440 µg/mL (≈ 3370 µM)
- solubility ([3]; pH 3.06, aqueous buffer, Solubility of Iloperidone in Aqueous Buffer): 917 µg/mL (≈ 2150 µM)
- solubility ([3]; pH 4.08, aqueous buffer, Solubility of Iloperidone in Aqueous Buffer): 681 µg/mL (≈ 1600 µM)
- solubility ([3]; pH 4.46, aqueous buffer, Solubility of Iloperidone in Aqueous Buffer): 586 µg/mL (≈ 1370 µM)
- solubility ([3]; pH 5.09, aqueous buffer, Solubility of Iloperidone in Aqueous Buffer): 341 µg/mL (≈ 800 µM)
- solubility ([3]; pH 6.11, aqueous buffer, Solubility of Iloperidone in Aqueous Buffer): 117 µg/mL (≈ 274 µM)
- solubility [3, 7]: ~30 µg/mL (≈ 70.3 µM)
- solubility ([3]; pH 7.02, aqueous buffer, Solubility of Iloperidone in Aqueous Buffer): 11 µg/mL (≈ 25.8 µM)
- solubility ([3]; simulated gastric fluid, solubility): ~3000 µg/mL (≈ 7030 µM)

Structure (SMILES): Cc1nccn1CC1CCc2c(c3ccccc3n2C)C1=O (stereo not drawn) [Ondansetron HCl, ondansetron hydrochloride]
- solubility ([4]; low pH gastric fluids): freely soluble
- solubility ([4]; pH >6): practically insoluble
- elimination half-life ([5]; average): approximately 3.8±1 hrs
- absorption from the gastrointestinal tract ([5]; in vivo): well absorbed
- solubility ([3]; pH 2.2, aqueous buffer, Solubility of Ondansetron HCl in Aqueous Buffer): 23300 µg/mL
- solubility ([3]; pH 3.2, aqueous buffer, Solubility of Ondansetron HCl in Aqueous Buffer): 25700 µg/mL
- solubility ([3]; pH 4.2, aqueous buffer, Solubility of Ondansetron HCl in Aqueous Buffer): 10900 µg/mL
- solubility ([3]; pH 5, aqueous buffer, Solubility of Ondansetron HCl in Aqueous Buffer): 3600 µg/mL
- solubility ([3]; pH 5.6, aqueous buffer, Solubility of Ondansetron HCl in Aqueous Buffer): 1700 µg/mL
- solubility ([3]; pH 6.2, aqueous buffer, Solubility of Ondansetron HCl in Aqueous Buffer): 400 µg/mL
- solubility ([3]; pH 6.8, aqueous buffer, Solubility of Ondansetron HCl in Aqueous Buffer): 36 µg/mL
- solubility [3, 7]: < 50 µg/mL
- solubility ([3]; pH 7, aqueous buffer, Solubility of Ondansetron HCl in Aqueous Buffer): 25 µg/mL
- solubility ([6]; pH 2.01, aqueous buffer): 26900 µg/mL
- solubility ([6]; pH 2.14, aqueous buffer): 27000 µg/mL
- solubility ([6]; pH 2.4, aqueous buffer): 26100 µg/mL
- solubility ([6]; pH 2.75, aqueous buffer): 26200 µg/mL
- solubility ([6]; pH 3.49, aqueous buffer): 26000 µg/mL
- solubility ([6]; pH 4.05, aqueous buffer): 26100 µg/mL
